Results from patent US5556886A, “HIV-inhibiting benzeneacetamide derivatives” (Janssen Pharmaceutica N.V., priority 1990, dated 1996).
In brackets after ≈: the same amount, converted by molar mass.

How the values were obtained:
HIV-1 = assay: in-vitro anti-HIV assay: inhibition of HIV-induced cytopathic effect in MT-4 cells (MTT); type: cell-based; conditions: for SI (selectivity index, ratio of CD50 to ED50): CD50/ED50, MT-4 cells; for EC50: Human immunodeficiency virus 1, MT4, HIV-infected MT-4 cells, cytopathic effect, MTT, 540 nm, read-out: ED50 (dose achieving 50% protection)
Protocol: (§1) A rapid, sensitive and automated assay procedure was used for the in-vitro evaluation of anti-HIV agents. An […] T4-cell line, MT-4, which was previously shown (Koyanagi et al., Int. J. Cancer, 36, 445-451, 1985) to be highly susceptible to and permissive for HIV infection, served as the target cell line. Inhibition of the HIV-induced cytopathic effect was used as the end point. The viability of both HIV-and mock-infected cells was assessed spectrophotometrically via the in-situ reduction of 3-(4,5-dimethylthiazol-2-yl)-2,5-diphenyltetrazolium bromide (MTT). The 50% cytotoxic dose (CD50 in μg/ml) was defined as the concentration of compound that reduced the absorbance of the mock-infectedcontrol sample by 50%. The percent protection achieved by the compound in HIV-infected cells was calculated by the following formula: [formula] whereby (ODT)HIV is the optical density measured with a given concentration of the test compound in HIV-infected cells; (ODC)HIV is the optical density measured for the control untreated HIV-infected cells; (ODC)MOCK is the optical density measured for the control untreated mock-infected cells; all optical density values were determined at 540 nm. The dose achieving 50% protection according to the above formula was defined as the 50% effective dose (ED50 in μg/ml). The ratio of CD50 to ED50 was defined as the selectivity index (SI).

in vitro = type: cell-based; conditions: human, mt-4 cells
Protocol: as §1

Cc1cc(C)c([N+](=O)[O-])c(NC(C(N)=O)c2c(Cl)cccc2Cl)c1 (stereo not drawn) [Compound 27]
SI (selectivity index, ratio of CD50 to ED50) (HIV-1): ~ 100
EC50 (HIV-1): 0.049 µg/mL (≈ 0.133 µM)
CC50 (in vitro): 5 µg/mL (≈ 13.6 µM)

Cc1cc(NC(C(N)=O)c2c(Cl)ccc(Cl)c2Cl)c([N+](=O)[O-])cc1C (stereo not drawn) [Compound 28]
SI (selectivity index, ratio of CD50 to ED50) (HIV-1): ~ 140
EC50 (HIV-1): 0.07 µg/mL (≈ 0.174 µM)
CC50 (in vitro): 10 µg/mL (≈ 24.8 µM)

Cc1ccc([N+](=O)[O-])c(NC(C(N)=O)c2c(Cl)cccc2Cl)c1 (single isomer, unassigned) [Compound 29, (-)-α-[(5-methyl-2-nitrophenyl)amino]-2,6-dichlorobenzeneacetamide]
SI (selectivity index, ratio of CD50 to ED50) (HIV-1): ~ 1550
EC50 (HIV-1): 0.0032 µg/mL (≈ 0.00903 µM)
CC50 (in vitro): 5 µg/mL (≈ 14.1 µM)

Cc1cc(NC(C(N)=O)c2c(Cl)cccc2Cl)c([N+](=O)[O-])cc1C (stereo not drawn) [Compound 24]
SI (selectivity index, ratio of CD50 to ED50) (HIV-1): ~ 2100
EC50 (HIV-1): 0.077 µg/mL (≈ 0.209 µM)
CC50 (in vitro): 160 µg/mL (≈ 435 µM)

Cc1ccc([N+](=O)[O-])c(NC(C(N)=O)c2c(Cl)cccc2Cl)c1 (stereo not drawn) [Compound 26]
SI (selectivity index, ratio of CD50 to ED50) (HIV-1): ≥ 4400
EC50 (HIV-1): 0.057 µg/mL (≈ 0.161 µM)
CC50 (in vitro): > 250 µg/mL

CC(=O)c1ccc(Cl)cc1NC(C(N)=O)c1c(Cl)cccc1Cl (stereo not drawn) [Compound 30, α-[(2-acetyl-5-chlorophenyl)amino]-2,6-dichlorobenzeneacetamide]
SI (selectivity index, ratio of CD50 to ED50) (HIV-1): ~ 18000
EC50 (HIV-1): 0.011 µg/mL (≈ 0.0296 µM)
CC50 (in vitro): 200 µg/mL (≈ 538 µM)

CC(=O)c1ccccc1NC(C(N)=O)c1c(Cl)cccc1Cl (racemic) [Compound 22, (±)-α[(2-acetylphenyl)amino]-2,6-dichlorobenzeneacetamide]
SI (selectivity index, ratio of CD50 to ED50) (HIV-1): ~ 2700
EC50 (HIV-1): 0.013 µg/mL (≈ 0.0386 µM)
CC50 (in vitro): 35 µg/mL (≈ 104 µM)

NC(=O)C(Nc1ccccc1[N+](=O)[O-])c1c(Cl)cccc1Cl (single isomer, unassigned; (-)) [Compound 25, (-)-2,6-dichloro-α-[(2-nitrophenyl)amino]benzeneacetamide]
SI (selectivity index, ratio of CD50 to ED50) (HIV-1): ~ 1600
EC50 (HIV-1): 0.018 µg/mL (≈ 0.0529 µM)
CC50 (in vitro): 29 µg/mL (≈ 85.3 µM)

NC(=O)C(Nc1ccccc1[N+](=O)[O-])c1c(Cl)cccc1Cl (stereo not drawn) [Compound 15, 2-(2,6-dichlorophenyl)-2-[(2-nitrophenyl)amino]acetamide]
SI (selectivity index, ratio of CD50 to ED50) (HIV-1): ~ 1000
EC50 (HIV-1): 0.02 µg/mL (≈ 0.0588 µM)
CC50 (in vitro): 20 µg/mL (≈ 58.8 µM)

CC(=O)c1ccccc1NC(C(N)=O)c1c(Cl)cccc1Cl (single isomer, unassigned) [Compound 23, (-)-α-[(2-acetylphenyl)amino]-2,6-dichlorobenzeneacetamide]
SI (selectivity index, ratio of CD50 to ED50) (HIV-1): ~ 3000
EC50 (HIV-1): 0.0066 µg/mL (≈ 0.0196 µM)
CC50 (in vitro): 20 µg/mL (≈ 59.3 µM)
